Test: log P by HPLC on reversed-phase column (EEC Directive 79/831 Annex V.A8)
Format: physicochemical
Conditions: not given
Method: In table 1, the log P values were determined in accordance with EEC Directive 79/831 Annex V.A8 by HPLC (High Performance Liquid Chromatography) on a reversed-phase column (C 18), using the method described below: Temperature: 40° C.; Mobile phases: 0.1% aqueous formic acid and acetonitrile; linear gradient from 10% acetonitrile to 90% acetonitrile. Calibration was carried out using unbranched alkan-2-ones (comprising 3 to 16 carbon atoms) with known log P values (determination of the log P values by the retention times using linear interpolation between two successive alkanones). lambda-max-values were determined using UV-spectra from 200 nm to 400 nm and the peak values of the chromatographic signals.

Compound | chromatographic logP
Cc1ccc2c(c1)CCC2CNC1CC1 (stereo not shown) [IIf.3, N-[(5-methyl-2,3-dihydro-1H-inden-1-yl)methyl]cyclopropanamine] | 0.95
Clc1cccc2c1C(CNC1CC1)CC2 (stereo not shown) [IIf.7, N-[(7-chloro-2,3-dihydro-1H-inden-1-yl)methyl]cyclopropanamine] | 0.95
FC(F)(F)c1ccc2c(c1)C(CNC1CC1)CC2 (stereo not shown) [IIf.8, N-{[6-(trifluoromethyl)-2,3-dihydro-1H-inden-1-yl]methyl}cyclopropanamine] | 1.25
Cc1cc(C)c2c(c1)C(CN(C(=O)c1c(C(F)F)nn(C)c1F)C1CC1)CCC2 (stereo not shown) [I.37, N-cyclopropyl-3-(difluoromethyl)-N-[(5,7-dimethyl-1,2,3,4-tetrahydronaphthalen-1-yl)methyl]-5-fluoro-1-methyl-1H-pyrazole-4-carboxamide] | 4.44
Clc1ccc2c(c1)CCC2CNC1CC1 (stereo not shown) [IIf.6, N-[(5-chloro-2,3-dihydro-1H-inden-1-yl)methyl]cyclopropanamine] | 1.11
Clc1cccc2c1C(CNC1CC1)CCC2 (stereo not shown) [IIf.15, N-[(8-chloro-1,2,3,4-tetrahydronaphthalen-1-yl)methyl]cyclopropanamine] | 1.57
Cc1cc(C)c2c(c1)C(CNC1CC1)CCC2 (stereo not shown) [IIf.13, N-[(5,7-dimethyl-1,2,3,4-tetrahydronaphthalen-1-yl)methyl]cyclopropanamine] | 1.75
COc1cccc2c1CCCC2CNC1CC1 (stereo not shown) [IIf.14, N-[(5-methoxy-1,2,3,4-tetrahydronaphthalen-1-yl)methyl]cyclopropanamine] | 1.28
Fc1cccc2c1CCC2CNC1CC1 (stereo not shown) [IIf.4, N-[(4-fluoro-2,3-dihydro-1H-inden-1-yl)methyl]cyclopropanamine] | 0.82
Clc1cc(Cl)c2c(c1)C(CNC1CC1)CC2 (stereo not shown) [IIf.9, N-[(4,6-dichloro-2,3-dihydro-1H-inden-1-yl)methyl]cyclopropanamine] | 1.38
c1ccc2c(c1)CCC2CNC1CC1 (stereo not shown) [IIf.1, N-(2,3-dihydro-1H-inden-1-ylmethyl)cyclopropanamine] | 0.75
CC1(C)CC(CNC2CC2)c2ccccc21 (stereo not shown) [IIf.5, N-[(3,3-dimethyl-2,3-dihydro-1H-inden-1-yl)methyl]cyclopropanamine] | 1.12
Cc1cccc2c1CCC2CNC1CC1 (stereo not shown) [IIf.2, N-[(4-methyl-2,3-dihydro-1H-inden-1-yl)methyl]cyclopropanamine] | 1
c1ccc2c(c1)CCCCC2CNC1CC1 (stereo not shown) [IIf.16, N-(6,7,8,9-tetrahydro-5H-benzo[7]annulen-5-ylmethyl)cyclopropanamine] | 1.17
Brc1cccc2c1C(CNC1CC1)CC2 (stereo not shown) [IIf.10, N-[(7-bromo-2,3-dihydro-1H-inden-1-yl)methyl]cyclopropanamine] | 1.08
CC1(CNC2CC2)CCCc2ccccc21 (stereo not shown) [IIf.11, N-[(1-methyl-1,2,3,4-tetrahydronaphthalen-1-yl)methyl]cyclopropanamine] | 1.1

Same assay, conditions: Table 1; HPLC C18, 40° C., 0.1% aqueous formic acid and acetonitrile gradient

Compound | logP
Cn1nc(C(F)F)c(C(=O)N(CC2CCc3cccc(Br)c32)C2CC2)c1Cl (stereo not shown) [I.22] | 4.08
Cn1nc(C(F)F)c(C(=O)N(CC2(C)CCCc3ccccc32)C2CC2)c1F (stereo not shown) [I.39] | 3.96
COc1cccc2c1CCCC2CN(C(=O)c1c(C(F)F)nn(C)c1F)C1CC1C (stereo not shown) [I.38] | 4.06

Same assay, conditions: reversed-phase C18 HPLC column; Table 2 (amines IIf); HPLC C18, 40° C., 0.1% aqueous formic acid and acetonitrile gradient; read-out: logP

Compound | chromatographic logP
Clc1ccc2c(c1)C(CNC1CC1)CCS2 (stereo not shown) [IIf.19, N-[(6-chloro-3,4-dihydro-2H-thiochromen-4-yl)methyl]cyclopropanamine] | 1.26
c1ccc2c(c1)CSCC2CNC1CC1 (stereo not shown) [IIf.17, N-(3,4-dihydro-1H-isothiochromen-4-ylmethyl)cyclopropanamine] | 0.86
Fc1ccc2c(c1)C(CNC1CC1)CCS2 (stereo not shown) [IIf.18, N-[(6-fluoro-3,4-dihydro-2H-thiochromen-4-yl)methyl]cyclopropanamine] | 1.05
